Data as given in patent US20120095052A1, “PAR-1 ANTAGONISM IN FED OR ANTACID-DOSED PATIENTS” (priority 2009, published 2012).
Where two headings read alike, the source gives them in different places.

Experiment: Clinical study of the effect of food and antacid on pharmacokinetics after a single oral 40 mg tablet in healthy subjects
Type: in vivo, human
Conditions: for Tmax / Cmax / half-life / AUC: single 40 mg oral tablet; for Tmax: median; for Cmax / half-life / AUC: po, 40 mg, mean
Protocol: and or the bisulfate salt thereof in healthy subjects was studied in a clinical trial. The primary objective of the study was to evaluate the effect of food (standardized high-fat breakfast) and antacid (increased gastric pH) on the pharmacokinetics (PK) of
and or the bisulfate salt thereof administered orally as a 40 mg tablet. A secondary objective was to evaluate the effect of meal timing relative to fasting on the PK of
The study was designed as a randomized, open-label, single-dose, parallel-group, single-center study conducted in healthy young adults in conformance with Good Clinical Practice. Healthy male and female subjects between the ages of 18 and 45 years with a body mass index of 19-32 kg/m^2 were eligible for enrollment. Eligible subjects were randomly assigned to receive a single 40 mg dose of
basis on Days 7, 14, 21, 28, 35, and 42 (±1 day) after dosing. The bioanalytical assay was an LC-MS/MS assay, LLOQ=1.00 ng/mL.

[1] = 40 mg tablet immediately with food vs fasted
[2] = 1 hr after food vs fasted, 40 mg tablet
[3] = 2 hr after food vs fasted, 40 mg tablet
[4] = Fed (immediately with food) vs fasted, 40 mg tablet
[5] = antacid co-administration vs alone, fasted subjects
[6] = fasted subjects, with antacid vs alone, 40 mg tablet

## CCOC(=O)N[C@@H]1CC[C@@H]2[C@@H](C1)C[C@H]1C(=O)O[C@H](C)[C@H]1[C@H]2/C=C/c1ccc(-c2cccc(F)c2)cn1 [SCH 530348, ethyl [(R1R,3aR,4aR,6R,8aR,9S,9aS)-9-[(E)-2-[5-(3-fluorophenyl)-2-pyridinyl]ethenyl]-dodecahydro-1-methyl-3-oxonaphtho[2,3-c]furan-6-yl] carbamate]
[1]
  increase of peak plasma concentration (Cmax): 31%
  increase of systemic exposure (AUC[l]): 43%
1 hour after food
  Tmax: 0.083 days
[2]
  Ratio Estimate Fed vs Fasted, AUC(I) (relative bioavailability): 143
  Ratio Estimate Fed vs Fasted, Cmax (relative bioavailability): 117
2 hours after food
  Tmax: 0.083 days
[3]
  Ratio Estimate Fed vs Fasted, AUC(I) (relative bioavailability): 127
  Ratio Estimate Fed vs Fasted, Cmax (relative bioavailability): 137
Fasted with antacid
  Tmax: 0.083 days
[4]
  Ratio Estimate Fed vs Fasted, AUC(I) (relative bioavailability): 143
  Ratio Estimate Fed vs Fasted, Cmax (relative bioavailability): 131
[5]
  reduction of peak plasma concentration (Cmax): 38%
  reduction of systemic exposure (AUC[l]): 15%
Both sexes, human, plasma, 1 hour after food (high-fat breakfast)
  Cmax: 298 ng/mL
Both sexes, human, plasma, 1 hour after food, n = 9
  half-life: 12 days
Both sexes, human, plasma, 1 hour after food, n = 9, read-out: AUC(I)
  AUC: 26800 ng·h/mL
Both sexes, human, plasma, 1 hour after food, read-out: AUC(tf)
  AUC: 23200 ng·h/mL
Both sexes, human, plasma, 2 hours after food (high-fat breakfast)
  Cmax: 355 ng/mL
Both sexes, human, plasma, 2 hours after food, n = 9
  half-life: 10.1 days
Both sexes, human, plasma, 2 hours after food, n = 9, read-out: AUC(I)
  AUC: 23400 ng·h/mL
Both sexes, human, plasma, 2 hours after food, read-out: AUC(tf)
  AUC: 22400 ng·h/mL
Both sexes, human, plasma, Fasted with antacid (20 mL Gaviscon extra-strength liquid)
  Cmax: 165 ng/mL
Both sexes, human, plasma, Fasted with antacid, n = 18
  half-life: 10.2 days
Both sexes, human, plasma, Fasted with antacid, n = 18, read-out: AUC(I)
  AUC: 15800 ng·h/mL
Both sexes, human, plasma, Fasted with antacid, read-out: AUC(tf)
  AUC: 15000 ng·h/mL
Both sexes, human, plasma, Fasted without antacid (after 10-hour fast), healthy subjects
  Cmax: 262 ng/mL
Both sexes, human, plasma, Fasted without antacid, healthy subjects, n = 19
  half-life: 10 days
Both sexes, human, plasma, Fasted without antacid, healthy subjects, n = 19, read-out: AUC(I)
  AUC: 18400 ng·h/mL
Both sexes, human, plasma, Fasted without antacid, healthy subjects, read-out: AUC(tf)
  AUC: 16800 ng·h/mL
Both sexes, human, plasma, Fed (immediately with food), n = 18
  half-life: 10.9 days
Both sexes, human, plasma, Fed (immediately with food), n = 18, read-out: AUC(I)
  AUC: 26600 ng·h/mL
Both sexes, human, plasma, Fed (immediately with food), read-out: AUC(tf)
  AUC: 22800 ng·h/mL
Both sexes, human, plasma, Fed (within 5 minutes of completing standardized high-fat breakfast)
  Cmax: 347 ng/mL
Both sexes, human, plasma, Fed (immediately with food), read-out: Tmax
  Tmax: 0.125 days
[6]
  Ratio Estimate with vs without Antacid, AUC(I) (relative bioavailability): 85
  Ratio Estimate with vs without Antacid, Cmax (relative bioavailability): 62
